Results reported in US20260132140A1, “IMIDAZOLYL-AMINO-PYRAZINE-CARBONITRILS AS CHK-1 INHIBITORS” (BenevolentAI Bio Limited, priority 2022, published 2026).
pIC50: −log10 of the molar value.

Legend:
[1] = molecular target: T1, human Chk1 kinase (Homo sapiens, UniProt O14757); assay: biochemical
T1 sequence (O14757 1-476): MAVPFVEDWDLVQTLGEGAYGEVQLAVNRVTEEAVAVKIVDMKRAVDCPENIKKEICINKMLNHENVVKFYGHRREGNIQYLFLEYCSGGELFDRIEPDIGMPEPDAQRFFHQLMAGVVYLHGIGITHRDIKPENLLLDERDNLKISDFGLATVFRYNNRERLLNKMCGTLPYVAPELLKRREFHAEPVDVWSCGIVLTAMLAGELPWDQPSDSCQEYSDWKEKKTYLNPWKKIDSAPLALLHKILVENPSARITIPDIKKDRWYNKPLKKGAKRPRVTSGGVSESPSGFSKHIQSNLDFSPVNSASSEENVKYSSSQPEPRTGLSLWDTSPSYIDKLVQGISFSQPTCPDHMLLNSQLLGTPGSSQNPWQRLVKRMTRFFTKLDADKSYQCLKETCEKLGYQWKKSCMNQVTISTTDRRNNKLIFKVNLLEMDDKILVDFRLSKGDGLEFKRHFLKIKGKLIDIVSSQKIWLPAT

[2] = molecular target: human Chk2 kinase (Homo sapiens, UniProt O96017); assay: biochemical
Sequence of human Chk2 kinase (O96017 whole entry): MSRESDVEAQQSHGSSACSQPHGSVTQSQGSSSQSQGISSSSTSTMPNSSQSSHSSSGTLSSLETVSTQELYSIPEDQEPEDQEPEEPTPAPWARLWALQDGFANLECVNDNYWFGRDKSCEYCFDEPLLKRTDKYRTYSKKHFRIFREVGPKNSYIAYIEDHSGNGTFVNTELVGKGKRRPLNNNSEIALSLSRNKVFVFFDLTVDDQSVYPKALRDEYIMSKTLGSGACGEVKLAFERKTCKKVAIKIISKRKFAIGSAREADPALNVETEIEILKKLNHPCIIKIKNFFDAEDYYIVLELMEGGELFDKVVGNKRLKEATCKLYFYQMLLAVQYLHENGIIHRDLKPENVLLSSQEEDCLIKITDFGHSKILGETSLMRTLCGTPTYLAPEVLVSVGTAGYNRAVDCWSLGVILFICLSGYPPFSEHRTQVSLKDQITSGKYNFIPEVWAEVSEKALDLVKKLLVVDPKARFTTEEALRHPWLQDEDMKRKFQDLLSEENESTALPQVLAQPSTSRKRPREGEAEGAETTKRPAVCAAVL

pIC50 [1]	pIC50 [2]	Compound
7.00 to 7.50	4.00 to 5.00	CN1CCC2(CC1)CCN(c1ccc(-n3cnc(Nc4cnc(C#N)cn4)c3)cc1)C2 [Example 60, 5-((1-(4-(8-Methyl-2,8-diazaspiro[4.5]decan-2-yl)phenyl)-1H-imidazol-4-yl)amino)pyrazine-2-carbonitrile]
6.00 to 6.50	< 4.00	N#Cc1cnc(Nc2cn(-c3ccc(CN4CC[C@@H](F)C4)c(Cl)c3)cn2)cn1 [Example 2, (R)-5-((1-(3-Chloro-4-((3-fluoropyrrolidin-1-yl)methyl)phenyl)-1H-imidazol-4-yl)amino)pyrazine-2-carbonitrile]
7.50 to 8.00	4.00 to 5.00	COc1cc(NC2CCN(C)CC2)ccc1-n1cnc(Nc2cnc(C#N)cn2)c1 [Example 13, 5-((1-(2-Methoxy-4-((1-methylpiperidin-4-yl)amino)phenyl)-1H-imidazol-4-yl)amino)pyrazine-2-carbonitrile]
7.50 to 8.00	< 4.00	C[C@H]1CCN1C1CCN(c2ccc(-n3cnc(Nc4cnc(C#N)cn4)c3)cc2)C1 (single isomer, unassigned) [Example 137]
> 8.00	< 4.00	CN(C)C1CCCN(c2ccc(-n3cnc(Nc4cnc(C#N)cn4)c3)cc2)C1 (single isomer, unassigned) [Example 121, 5-((1-(4-(3-(Dimethylamino)piperidin-1-yl)phenyl)-1H-imidazol-4-yl)amino)pyrazine-2-carbonitrile]
6.50 to 7.00	4.00 to 5.00	CN1CCCN(c2ccc(-n3cnc(Nc4cnc(C#N)cn4)c3)cn2)CC1 [Example 20, 5-((1-(6-(4-methyl-1,4-Diazepan-1-yl)pyridin-3-yl)-1H-imidazol-4-yl)amino)pyrazine-2-carbonitrile]
7.50 to 8.00	4.00 to 5.00	CC(C)(C)N1CC(Oc2ccc(-n3cnc(Nc4cnc(C#N)cn4)c3)cc2)C1 [Example 45, 5-((1-(4-((1-(tert-Butyl)azetidin-3-yl)oxy)phenyl)-1H-imidazol-4-yl)amino)pyrazine-2-carbonitrile]
7.50 to 8.00	4.00 to 5.00	CN1CCC2(CCN2c2ccc(-n3cnc(Nc4cnc(C#N)cn4)c3)cc2)C1 (single isomer, unassigned) [Example 119, 5-((1-(4-(6-Methyl-1,6-diazaspiro[3.4]octan-1-yl)phenyl)-1H-imidazol-4-yl)amino)pyrazine-2-carbonitrile]
7.50 to 8.00	4.00 to 5.00	COc1cc(N2CCN(C)C[C@@H]2C)ccc1-n1cnc(Nc2cnc(C#N)cn2)c1 [Example 31, (S)-5-((1-(4-(2,4-Dimethylpiperazin-1-yl)-2-methoxyphenyl)-1H-imidazol-4-yl)amino)pyrazine-2-carbonitrile]
7.50 to 8.00	4.00 to 5.00	COc1cc(CN2CC[C@@H](F)C2)ccc1-n1cnc(Nc2cnc(C#N)cn2)c1 [Example 169]
6.50 to 7.00	4.00 to 5.00	CN1[C@@H]2COC[C@H]1CN(c1ccc(-n3cnc(Nc4cnc(C#N)cn4)c3)cc1)C2 [Example 177, 5-((1-(4-((1R,5S)-9-Methyl-3-oxa-7,9-diazabicyclo[3.3.1]nonan-7-yl)phenyl)-1H-imidazol-4-yl)amino)pyrazine-2-carbonitrile]
7.00 to 7.50	5.00 to 6.00	CN(C)[C@@H]1CCN(c2cnc(-n3cnc(Nc4cnc(C#N)cn4)c3)nc2)C1 [Example 82, (R)-5-((1-(5-(3-(Dimethylamino)pyrrolidin-1-yl)pyrimidin-2-yl)-1H-imidazol-4-yl)amino)pyrazine-2-carbonitrile]
> 8.00	5.00 to 6.00	COc1cc(N2CC[C@@H](N3CCC3)C2)ccc1-n1cnc(Nc2cnc(C#N)cn2)c1 [Example 103, (R)-5-((1-(4-(3-(Azetidin-1-yl)pyrrolidin-1-yl)-2-methoxyphenyl)-1H-imidazol-4-yl)amino)pyrazine-2-carbonitrile]
7.00 to 7.50	< 4.00	N#Cc1cnc(Nc2cn(-c3ccc(N4CCN(C5CC(F)(F)C5)CC4)cc3)cn2)cn1 [Example 181, 5-((1-(4-(4-(3,3-Difluorocyclobutyl)piperazin-1-yl)phenyl)-1H-imidazol-4-yl)amino)pyrazine-2-carbonitrile]
7.00 to 7.50	4.00 to 5.00	CN(C)CC1CN(c2cccc(-n3cnc(Nc4cnc(C#N)cn4)c3)c2)CCO1 (single isomer, unassigned) [Example 107, 5-((1-(3-(2-((Dimethylamino)methyl)morpholino)phenyl)-1H-imidazol-4-yl)amino)pyrazine-2-carbonitrile]
7.00 to 7.50	4.00 to 5.00	CN1CCN(c2ccc(-n3cnc(Nc4cnc(C#N)cn4)c3)cc2F)CC1 [Example 21, 5-((1-(3-Fluoro-4-(4-methylpiperazin-1-yl)phenyl)-1H-imidazol-4-yl)amino)pyrazine-2-carbonitrile]
7.50 to 8.00	4.00 to 5.00	COc1cc(N2C[C@H]3CCN(C)[C@H]3C2)ccc1-n1cnc(Nc2cnc(C#N)cn2)c1 [Example 55, 5-((1-(2-Methoxy-4-((3aR,6aR)-1-methylhexahydropyrrolo[3,4-b]pyrrol-5(1H)-yl)phenyl)-1H-imidazol-4-yl)amino)pyrazine-2-carbonitrile]
> 8.00	5.00 to 6.00	CN(C)C1CCN(c2ccc(-n3cnc(Nc4cnc(C#N)cn4)c3)cc2)CC1 [Example 37, 5-((1-(4-(4-(Dimethylamino)piperidin-1-yl)phenyl)-1H-imidazol-4-yl)amino)pyrazine-2-carbonitrile]
7.50 to 8.00	4.00 to 5.00	COc1cc(N(C)C2CCN(C)CC2)ccc1-n1cnc(Nc2cnc(C#N)cn2)c1 [Example 14, 5-((1-(2-Methoxy-4-(methyl(1-methylpiperidin-4-yl)amino)phenyl)-1H-imidazol-4-yl)amino)pyrazine-2-carbonitrile]
7.50 to 8.00	5.00 to 6.00	N#Cc1cnc(Nc2cn(-c3ccc(N4CCC(N5CC6(CCC6)C5)C4)cc3)cn2)cn1 (single isomer, unassigned) [Example 131, 5-((1-(4-(3-(2-Azaspiro[3.3]heptan-2-yl)pyrrolidin-1-yl)phenyl)-1H-imidazol-4-yl)amino)pyrazine-2-carbonitrile]
7.50 to 8.00	4.00 to 5.00	CN1C[C@@H]2C[C@H]1CN2c1ccc(-n2cnc(Nc3cnc(C#N)cn3)c2)cc1 [Example 10, 5-((1-(4-((1S,4S)-5-Methyl-2,5-diazabicyclo[2.2.1]heptan-2-yl)phenyl)-1H-imidazol-4-yl)amino)pyrazine-2-carbonitrile]
6.50 to 7.00	4.00 to 5.00	CN1C[C@H](F)[C@H](Oc2cccc(-n3cnc(Nc4cnc(C#N)cn4)c3)c2)C1 [Example 56, 5-((1-(3-(((3R,4S)-4-fluoro-1-methylpyrrolidin-3-yl)oxy)phenyl)-1H-imidazol-4-yl)amino)pyrazine-2-carbonitrile]
6.50 to 7.00	< 4.00	Cc1cc(CN2CC[C@@H](F)C2)cc(C(F)(F)F)c1-n1cnc(Nc2cnc(C#N)cn2)c1 [Example 54, (R)-5-((1-(4-((3-Fluoropyrrolidin-1-yl)methyl)-2-methyl-6-(trifluoromethyl)phenyl)-1H-imidazol-4-yl)amino)pyrazine-2-carbonitrile]
> 8.00	5.00 to 6.00	C[C@H]1CCN1C1CCN(c2ccc(-n3cnc(Nc4cnc(C#N)cn4)c3)cc2)C1 (single isomer, unassigned) [Example 138]
6.50 to 7.00	< 4.00	N#Cc1cnc(Nc2cn(-c3ccc(CN4CC[C@@H](F)C4)cc3F)cn2)cn1 [Example 6, (R)-5-((1-(2-Fluoro-4-((3-fluoropyrrolidin-1-yl)methyl)phenyl)-1H-imidazol-4-yl)amino)pyrazine-2-carbonitrile]
7.50 to 8.00	4.00 to 5.00	CN1CCC(Nc2ccc(-n3cnc(Nc4cnc(C#N)cn4)c3)cc2)CC1 [Example 26, 5-((1-(4-((1-Methylpiperidin-4-yl)amino)phenyl)-1H-imidazol-4-yl)amino)pyrazine-2-carbonitrile]
> 8.00	5.00 to 6.00	CN[C@H]1CN(c2ccc(-n3cnc(Nc4cnc(C#N)cn4)c3)c(OC)c2)C[C@H]1F [Example 164, 5-((1-(4-((3R,4S)-3-Fluoro-4-(methylamino)pyrrolidin-1-yl)-2-methoxyphenyl)-1H-imidazol-4-yl)amino)pyrazine-2-carbonitrile]
7.50 to 8.00	5.00 to 6.00	N#Cc1cnc(Nc2cn(-c3ccc(N4C[C@H]5CN[C@H]5C4)cc3)cn2)cn1 [Example 161, 5-((1-(4-((1R,5R)-3,6-Diazabicyclo[3.2.0]heptan-3-yl)phenyl)-1H-imidazol-4-yl)amino)pyrazine-2-carbonitrile]
7.50 to 8.00	4.00 to 5.00	CN1CCC12CCN(c1ccc(-n3cnc(Nc4cnc(C#N)cn4)c3)cc1)CC2 [Example 100, 5-((1-(4-(1-Methyl-1,7-diazaspiro[3.5]nonan-7-yl)phenyl)-1H-imidazol-4-yl)amino)pyrazine-2-carbonitrile]
7.50 to 8.00	4.00 to 5.00	CN(C)[C@@H]1CCN(c2ccc(-n3cnc(Nc4cnc(C#N)cn4)c3)nc2C(F)(F)F)C1 [Example 77, (R)-5-((1-(5-(3-(Dimethylamino)pyrrolidin-1-yl)-6-(trifluoromethyl)pyridin-2-yl)-1H-imidazol-4-yl)amino)pyrazine-2-carbonitrile]
